Measured values taken from PMC11865577 (2024).
Values belong to the compound of their own block, whether it stands above or below them.

How the values were obtained:
[1] = test system: hsa-mir-6850 (RNA, G4) AGCCGGGGCGGGAGGGGAAGGGACGCCCGGCU; test: fluorescence titration; settings: 20 mM NaCl, 80 mM KCl, apparent
[2] = test system: hsa-mir-191 (RNA, miRNA) AGCCAGCUGUUGUCUCCAGAGCAUUCCAGCUGGCU; test: fluorescence titration; settings: 20 mM NaCl, 80 mM KCl, phosphate pH 7.0, apparent
[3] = test system: hsa-mir-221 (RNA, miRNA) AGCAGAUUUCUGUGUUCGUUAGGCAACAGCUGCU; test: fluorescence titration; settings: 20 mM NaCl, 80 mM KCl, phosphate pH 7.0, apparent
[4] = test system: hsa-mir-374a (RNA, miRNA) AGCUAAGUGUUAUAGCACUUAGCU; test: fluorescence titration; settings: 20 mM NaCl, 80 mM KCl, phosphate pH 7.0, apparent
[5] = test system: hsa-mir-21 (RNA, miRNA) AGCGUUGACUGUUGAAUCUCAUGGCAACGCU; test: fluorescence titration; settings: 20 mM NaCl, 80 mM KCl, phosphate pH 7.0, apparent
[6] = test system: hsa-mir-4437 (RNA, miRNA) AGCUCCACAAGGAGGGGAUGACCCUUGUGGGGCU; test: fluorescence titration; settings: 20 mM NaCl, 80 mM KCl; 20 mM phosphate pH 7.0, 1% DMSO, 20 °C; apparent
[7] = test system: common stem sequence with four Us in the terminal loop (RNA, hairpin) GUGUACGAAGUUUCAGCUUUUGCUGAAGCUUCGUGCAC; test: fluorescence titration; settings: 20 mM NaCl, 80 mM KCl; 20 mM phosphate pH 7.0, 1% DMSO, 20 °C; apparent
[8] = test system: hsa-mir-4520-1 mutG2,7A (RNA, miRNA) AGCCCAAAUCAAAAAAAGAUUUGGGCU; test: fluorescence titration; settings: 20 mM NaCl, 80 mM KCl; 20 mM phosphate pH 7.0, 1% DMSO, 20 °C; apparent
[9] = test system: G4_(GGGU)6 (RNA, G4) AGCGGGUGGGUGGGUGGGUGGGUGGGUGCU; test: fluorescence titration; settings: 20 mM NaCl, 80 mM KCl; 20 mM phosphate pH 7.0, 1% DMSO, 20 °C; apparent
[10] = test system: mutG7A (biotinylated) (RNA, miRNA) AGCCCAAAUCAGAAAAAGAUUUGGGCU; test: SPR, multi-cycle, 1:1 fit; settings: 20 mM NaCl, 80 mM KCl; 20 mM phosphate pH 7.0, 1% DMSO, 25 °C; up to 50 μM; apparent
[11] = test system: hsa-mir-6847 (RNA, miRNA) AGCGAGCUGGAAGGAGUGGGCCUGGCUCGCU; test: fluorescence titration; settings: 20 mM NaCl, 80 mM KCl; 20 mM phosphate pH 7.0, 1% DMSO, 20 °C; apparent
[12] = test system: hsa-mir-4520-1-mutG2A (RNA, miRNA) AGCCCAAAUCAAAAAAGGAUUUGGGCU; test: fluorescence titration; settings: 20 mM NaCl, 80 mM KCl; 20 mM phosphate pH 7.0, 1% DMSO, 20 °C; apparent
[13] = test system: hsa-mir-4520-1 loop (RNA, miRNA) AGCCCAAAUCAGAAAAGGAUUUGGGCU; test: fluorescence titration; settings: 20 mM NaCl, 80 mM KCl; 20 mM phosphate pH 7.0, 1% DMSO, 20 °C; apparent
[14] = test system: hsa-mir-4520-1-mutG7A (RNA, miRNA) AGCCCAAAUCAGAAAAAGAUUUGGGCU; test: fluorescence titration; settings: 20 mM NaCl, 80 mM KCl; 20 mM phosphate pH 7.0, 1% DMSO, 20 °C; apparent
[15] = test system: hsa-mir-4520-1 loop (biotinylated) (RNA, miRNA) AGCCCAAAUCAGAAAAGGAUUUGGGCU; test: SPR, single-cycle kinetics; settings: 20 mM NaCl, 80 mM KCl; 20 mM phosphate pH 7.0, 25 °C; apparent
[16] = test system: mutG2A (biotinylated) (RNA, miRNA) AGCCCAAAUCAAAAAAGGAUUUGGGCU; test: SPR, single-cycle kinetics; settings: 20 mM NaCl, 80 mM KCl; 20 mM phosphate pH 7.0, 25 °C; apparent
[17] = test system: hsa-mir-4773-1 (RNA, miRNA) AGCUCUGCUUUAUUUCAUCAAAGCAGAGCU; test: fluorescence titration; settings: 20 mM NaCl, 80 mM KCl; 20 mM phosphate pH 7.0, 1% DMSO, 20 °C; apparent
[18] = 20 mM phosphate pH 7.0, 1% DMSO, 20 °C, 0.1 μM compound
[19] = 1 μM compound, range 2.6-16 μM for all RNAs

KDapp [1, 18]: 0.19 µM
Structure (SMILES): CN1C(=CC=Cc2cc[n+](CCC[N+](C)(C)C)c3ccccc23)Sc2ccccc21

KDapp [2, 19]: 3.8 ± 0.5 µM | KDapp [3, 19]: 3.8 ± 0.3 µM | KDapp ([1]; phosphate pH 7.0, 1 μM compound, range 2.6-16 μM for all RNAs): 4.0 ± 0.5 µM | KDapp [4, 19]: 12 ± 1 µM | KDapp [5, 19]: 2.6 ± 0.6 µM
Structure (SMILES): COc1ccc2c(c[n+](C)c3c4cc5c(cc4ccc23)OCO5)c1OC

KDapp [6]: 4.4 µM
Structure (SMILES): C[n+]1ccc(C=C2Sc3ccccc3N2CCCCC(=O)NCCOCCOCCOCCN=[N+]=[N-])c2ccccc21

KDapp ([2]; 1 μM compound): 14 µM | KDapp ([1]; phosphate pH 7.0, 1 μM compound): 4.5 µM | KDapp ([5]; 1 μM compound): 20 µM
Structure (SMILES): N#CC(c1ccnc(OCc2ccc(CN3CCOCC3)cc2)n1)c1nc2ccccc2s1 (stereo not shown)

KDapp [1, 18]: 0.20 µM
Structure (SMILES): C[n+]1c(C=C2C=CN(CCC[N+](C)(C)C)c3ccccc32)sc2ccccc21

KDapp ([2]; 0-40 μM RNA): > 40 µM | KDapp ([3]; 0-40 μM RNA): > 40 µM | KDapp ([5]; 0-40 μM RNA): > 40 µM
Structure (SMILES): O=c1cc(-c2ccccc2)oc2cc(O)c(O)c(O)c12

KDapp ([2]; range 16-25 μM for target RNAs): 25 ± 3 µM | KDapp ([3]; range 16-25 μM for target RNAs): 20 ± 2 µM | KDapp ([1]; phosphate pH 7.0): 3.3 ± 0.1 µM | KDapp ([4]; 0-40 μM RNA, low-rank RNA): > 40 µM | KDapp ([5]; range 16-25 μM for target RNAs): 16 ± 0.5 µM
Structure (SMILES): O=c1c(O)c(-c2cc(O)c(O)c(O)c2)oc2cc(O)cc(O)c12

KDapp [7]: 9 µM | KDapp [8]: 3.7 µM | KDapp [9]: 0.15 µM | KDapp [10]: > 50 µM | KDapp [11]: 0.022 µM | KDapp [12]: 0.011 µM | KDapp [13]: 0.024 µM | KDapp ([1]; 20 mM phosphate pH 7.0, 1% DMSO, 20 °C): 0.19 µM | KDapp [14]: 15 µM | KDapp [15]: 0.10 ± 0.02 µM | KDapp [16]: 0.044 ± 0.008 µM | KDapp [17]: > 20 µM
Structure (SMILES): [N-]=[N+]=NCCOCCOCCOCCNC(=O)Cn1cc2c(nc1=O)Nc1c(OCCN)cccc1O2
